# Measurements published in patent US20160130278A1 (TAISHO PHARMACEUTICAL CO., LTD, priority 2013, published 2016).
# Molecular target: T1, human type 1 glycine transporter (GlyT1) (Homo sapiens, UniProt P48067)
# T1 construct: T98G cells (glioma cells) expressing human type 1 glycine transporter (GlyT1) were used
# T1 sequence (P48067 1-706): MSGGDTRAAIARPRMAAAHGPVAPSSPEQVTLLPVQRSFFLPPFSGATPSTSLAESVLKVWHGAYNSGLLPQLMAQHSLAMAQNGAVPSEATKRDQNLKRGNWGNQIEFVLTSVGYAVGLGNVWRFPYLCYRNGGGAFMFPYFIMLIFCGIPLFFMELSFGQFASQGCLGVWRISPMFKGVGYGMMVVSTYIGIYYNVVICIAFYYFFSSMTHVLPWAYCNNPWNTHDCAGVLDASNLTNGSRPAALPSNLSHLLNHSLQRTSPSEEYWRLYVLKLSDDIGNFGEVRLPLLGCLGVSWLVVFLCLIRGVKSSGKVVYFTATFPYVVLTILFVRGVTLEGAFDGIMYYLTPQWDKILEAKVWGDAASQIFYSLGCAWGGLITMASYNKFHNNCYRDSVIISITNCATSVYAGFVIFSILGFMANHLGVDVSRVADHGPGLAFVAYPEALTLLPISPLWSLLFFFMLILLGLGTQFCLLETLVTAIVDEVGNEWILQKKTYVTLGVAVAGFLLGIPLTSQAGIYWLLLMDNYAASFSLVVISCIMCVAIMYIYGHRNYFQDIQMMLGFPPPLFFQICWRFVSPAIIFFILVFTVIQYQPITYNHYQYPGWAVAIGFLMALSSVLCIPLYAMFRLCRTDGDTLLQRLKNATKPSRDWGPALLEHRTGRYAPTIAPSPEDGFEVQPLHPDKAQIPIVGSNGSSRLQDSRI
# Test: Glycine uptake inhibition experiment ([3H]glycine uptake)
# Format: cell-based
# Details: GlyT1
# Description: Glycine Uptake Inhibition Experiment
# A glycine uptake experiment was conducted in accordance with the method published in Neuron, 8, 927-935, 1992. In the experiment, T98G cells (glioma cells) expressing human type 1 glycine transporter (GlyT1) were used. The T98G cells were seeded in a 96-well plate at 2.0×10^4 cells/well and cultured overnight in a CO2 incubator. The test substance was dissolved in a 100% DMSO solution and then dissolved in a 10 mM HEPES buffer solution (pH 7.4) containing 150 mM sodium chloride, 1 mM calcium chloride, 5 mM potassium chloride, 1 mM magnesium chloride, 10 mM glucose and 0.2% bovine serum albumin. After removing the cell culture medium, the test substance was subjected to a 10-min pretreatment. Subsequently, the test substance and [^3H] glycine (final concentration: 250 nM) were added to the cells and reaction was performed at room temperature for 15 minutes. After the end of the reaction, the extracellular fluid was aspirated with a manifold to remove excess labeled glycine present outside the cells, and then the cells were lysed with a 0.5 M aqueous sodium hydroxide solution. The glycine content in the cells was determined by measuring the radioactivity in the cell lysate with a liquid scintillation counter. Glycine uptake in the presence of 10 μM ALX5407 was defined as non-specific uptake, and the value calculated by subtracting the amount of the non-specific uptake from the total uptake in the absence of 10 μM ALX5407 was defined as specific uptake. In addition, glycine uptake inhibitory activity (IC50 value) was calculated from an inhibition curve at the concentrations of each test substance ranging from 10^−9 to 10^−5 M. It should be noted that ALX5407 is an HCl salt of N-[(3R)-3-([1,1′-biphenyl]-4-yloxy)-3-(4-fluorophenyl)propyl]-N-methylglycine.
row,IC50 [nM],Compound
1,260,"N#Cc1cccc([C@H](NC(=O)c2nccc(C(F)(F)F)c2Cl)C2(O)CCCC2)c1 [Compound 37, 3-chloro-N-[(S)-(3-cyanophenyl)(1-hydroxycyclopentyl)methyl]-4-(trifluoromethyl)pyridine-2-carboxamide]"
2,5500,"CCn1cc(-c2cccc(C(NC(=O)c3ccc(F)cc3C(F)(F)F)C3(O)CCC(F)(F)CC3)c2)cn1 (single isomer, unassigned) [Compound 216, N-{(4,4-difluoro-1-hydroxycyclohexyl)[3-(1-ethyl-1H-pyrazol-4-yl)phenyl]methyl}-4-fluoro-2-(trifluoromethyl)benzamide]"
3,110,"CCn1cc(-c2cccc(C(NC(=O)c3cccc(C(F)(F)F)c3Cl)C3(O)CCCC3)c2)cn1 (centres unmarked) [Compound 1, 2-chloro-N-{[3-(1-ethyl-1H-pyrazol-4-yl)phenyl](1-hydroxycyclopentyl)methyl}-3-(trifluoromethyl)benzamide]"
4,120,"O=C(NC(c1cccc(F)c1Cl)[C@]1(O)CC[C@@H](F)CC1)c1nccc2ccccc12 (single isomer, unassigned) [Compound 255, N-[(2-chloro-3-fluorophenyl)(cis-4-fluoro-1-hydroxycyclohexyl)methyl]isoquinoline-1-carboxamidea]"
5,1200,"O=C(NC(c1cccc(F)c1Cl)[C@]1(O)CC[C@@H](F)CC1)c1cc(C(F)(F)F)ccc1-n1nccn1 (single isomer, unassigned) [Compound 381, N-[-(2-chloro-3-fluorophenyl)(cis-4-fluoro-1-hydroxycyclohexyl)methyl]-2-(2H-1,2,3-triazol-2-yl)-5-(trifluoromethyl)benzamide]"
6,120,"O=C(NC(c1cccc(F)c1Cl)[C@]1(O)CC[C@@H](F)CC1)c1cc(C(F)(F)F)ccc1Cl (single isomer, unassigned) [Compound 292, 2-chloro-N-[(2-chloro-3-fluorophenyl)(cis-4-fluoro-1-hydroxycyclohexyl)methyl]-5-(trifluoromethyl)benzamide]"
7,1500,"O=C(NC(c1cncc(Cl)c1)[C@]1(O)CC[C@@H](F)CC1)c1nccc(C(F)(F)F)c1Cl (single isomer, unassigned) [Compound 243, 3-chloro-N-[(5-chloropyridin-3-yl)(cis-4-fluoro-1-hydroxycyclohexyl)methyl]-4-(trifluoromethyl)pyridine-2-carboxamide]"
8,790,"O=C(NC(c1cccc(F)c1Cl)[C@]1(O)CC[C@@H](F)CC1)c1cccc(C(F)(F)F)c1-n1nccn1 (single isomer, unassigned) [Compound 379, N-[(2-chloro-3-fluorophenyl)(cis-4-fluoro-1-hydroxycyclohexyl)methyl]-2-(2H-1,2,3-triazol-2-yl)-3-(trifluoromethyl)benzamide]"
9,2100,"O=C(NC(c1cccc(F)c1)C1(O)CCC1)c1nccc(C(F)(F)F)c1Cl (centres unmarked) [Compound 62, 3-chloro-N-[(3-fluorophenyl)(1-hydroxycyclobutyl)methyl]-4-(trifluoromethyl)pyridine-2-carboxamide]"
10,280,"O=C(NC(c1cc(Cl)ccc1Cl)C1(O)CCC(F)(F)CC1)c1nccc(C(F)(F)F)c1Cl (single isomer, unassigned) [Compound 234, 3-chloro-N-[(2,5-dichlorophenyl)(4,4-difluoro-1-hydroxycyclohexyl)methyl]-4-(trifluoromethyl)pyridine-2-carboxamide]"
11,56,"O=C(NC(c1cc(Cl)ccn1)[C@]1(O)CC[C@@H](F)CC1)c1ccnc(C(F)(F)F)c1Cl (single isomer, unassigned) [Compound 330, 3-chloro-N-[(4-chloropyridin-2-yl)(cis-4-fluoro-1-hydroxycyclohexyl)methyl]-2-(trifluoromethyl)pyridine-4-carboxamide]"
12,150,"O=C(NC(c1cccc(F)c1Cl)[C@]1(O)CC[C@@H](F)CC1)c1cc(C(F)(F)F)ncc1Cl (single isomer, unassigned) [Compound 280, 5-chloro-N-[(2-chloro-3-fluorophenyl)(cis-4-fluoro-1-hydroxycyclohexyl)methyl]-2-(trifluoromethyl)pyridine-4-carboxamide]"
13,3800,"Cc1ccc(C(NC(=O)c2nccc(C(F)(F)F)c2Cl)C2(O)CCCC2)cc1 (centres unmarked) [Compound 49, 3-chloro-N-[(1-hydroxycyclopentyl)(4-methylphenyl)methyl]-4-(trifluoromethyl)pyridine-2-carboxamide]"
14,1600,"O=C(NC(c1cccc(F)c1Cl)[C@]1(O)CC[C@@H](F)CC1)c1ncc(Cl)cc1-n1nccn1 (single isomer, unassigned) [Compound 371, 5-chloro-N-[(2-chloro-3-fluorophenyl)(cis-4-fluoro-1-hydroxycyclohexyl)methyl]-3-(2H-1,2,3-triazol-2-yl)pyridine-2-carboxamide]"
15,8800,"CCn1cc(-c2cccc(C(NC(=O)c3cccc(OC)c3Cl)C3(O)CCC(F)(F)CC3)c2)cn1 (centres unmarked) [Compound 207, 2-chloro-N-{(4,4-difluoro-1-hydroxycyclohexyl)[3-(1-ethyl-1H-pyrazol-4-yl)phenyl]methyl}-3-methoxybenzamide]"
16,270,"O=C(NC(c1cccc(F)c1Cl)[C@]1(O)CC[C@@H](F)CC1)c1ccc(C(F)(F)F)cc1-n1nccn1 (single isomer, unassigned) [Compound 380, N-[(2-chloro-3-fluorophenyl)(cis-4-fluoro-1-hydroxycyclohexyl)methyl]-2-(2H-1,2,3-triazol-2-yl)-4-(trifluoromethyl)benzamide]"
17,1600,"O=C(NC(c1cccc(F)c1Cl)[C@]1(O)CC[C@@H](F)CC1)c1cccc2ccncc12 (single isomer, unassigned) [Compound 275, N-[(2-chloro-3-fluorophenyl)(cis-4-fluoro-1-hydroxycyclohexyl)methyl]isoquinoline-8-carboxamide]"
18,1400,"O=C(NC(c1cc(Cl)ccn1)[C@]1(O)CC[C@@H](F)CC1)c1nccc(C(F)F)c1Cl (single isomer, unassigned) [Compound 332, 3-chloro-N-[(4-chloropyridin-2-yl)(cis-4-fluoro-1-hydroxycyclohexyl)methyl]-4-(difluoromethyl)pyridine-2-carboxamide]"
19,920,"O=C(NC(c1cc(Cl)ccc1F)[C@]1(O)CC[C@@H](F)CC1)c1cc(C(F)(F)F)ncc1Cl (single isomer, unassigned) [Compound 377, 5-chloro-N-[(5-chloro-2-fluorophenyl)(cis-4-fluoro-1-hydroxycyclohexyl)methyl]-2-(trifluoromethyl)pyridine-4-carboxamide]"
20,260,"CCn1cc(-c2cccc(C(NC(=O)c3cccc(C(F)(F)F)c3Cl)C3(O)CCC(F)(F)CC3)c2)cn1 (centres unmarked) [Compound 118, 2-chloro-N-{(4,4-difluoro-1-hydroxycyclohexyl)[3-(1-ethyl-1H-pyraozl-4-yl)phenyl]methyl}-3-(trifluoromethyl)benzamide]"
21,300,"N#Cc1cccc(C(NC(=O)c2nccc(C(F)(F)F)c2Cl)C2(O)CCCC2)c1 (centres unmarked) [Compound 23, 3-chloro-N-[(3-cyanophenyl)(1-hydroxycyclopentyl)methyl]-4-(trifluoromethyl)pyridine-2-carboxamide]"
22,490,"O=C(NC(c1cccc(-c2ccccn2)c1)C1(O)CCC(F)(F)CC1)c1cc(C(F)(F)F)ccc1Cl (single isomer, unassigned) [Compound 190, 2-chloro-N-[(4,4-difluoro-1-hydroxycyclohexyl)[3-(pyridin-2-yl)phenyl]methyl}-5-(trifluoromethyl)benzamide]"

# Same assay, conditions: human GlyT1
row,IC50 [nM],Compound
1,1000,"O=C(NC(c1ccccc1Cl)C1(O)CCC(F)(F)CC1)c1ncc(C(F)(F)F)cc1-n1nccn1 (single isomer, unassigned) [Compound 407, N-[(2-chlorophenyl)(4,4-difluoro-1-hydroxycyclohexyl)methyl]-3-(2H-1,2,3-triazol-2-yl)-5-(trifluoromethyl)pyridine-2-carboxamide]"
